# Laboratory results as given in patent US10501414B2, “Indole analogs as 5-oxo-ETE receptor antagonists and method of use thereof” (THE ROYAL INSTITUTION FOR THE ADVANCEMENT OF …, priority 2015, dated 2019).
# Values joined by “and” are separate entries in the source; they are usually repeats but may differ in a detail not shown here. Identical values can stand only once. Like-named read-outs stand apart in the source and are kept apart here.
# Target: T1, OXE receptor (Homo sapiens, UniProt Q8TDS5)
# T1 construct: Human granulocytes (≥95% neutrophils) are prepared from whole blood; endogenous in cells; host or cells: human granulocytes (≥95% neutrophils) from whole blood
# T1 sequence (Q8TDS5 whole entry): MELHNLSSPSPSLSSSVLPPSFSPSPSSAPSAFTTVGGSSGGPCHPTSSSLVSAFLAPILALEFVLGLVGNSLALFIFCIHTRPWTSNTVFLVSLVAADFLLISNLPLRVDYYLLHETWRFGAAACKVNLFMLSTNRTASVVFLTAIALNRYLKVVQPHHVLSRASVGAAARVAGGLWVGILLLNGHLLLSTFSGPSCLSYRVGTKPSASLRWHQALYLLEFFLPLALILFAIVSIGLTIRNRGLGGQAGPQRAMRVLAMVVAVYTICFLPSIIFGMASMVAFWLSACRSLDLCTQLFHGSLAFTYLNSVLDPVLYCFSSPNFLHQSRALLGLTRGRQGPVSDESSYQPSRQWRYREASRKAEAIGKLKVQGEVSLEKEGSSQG
# Test: Calcium mobilization in human granulocytes (inhibition of 5-oxo-ETE-induced calcium mobilization)
# Format: cell-based
# Description: Evaluation of Antagonist Activity: Calcium Mobilization in Human Granulocytes
# Human granulocytes (≥95% neutrophils) are prepared from whole blood using Dextran 500 to remove red blood cells, followed by centrifugation over Ficoll-Paque to remove mononuclear cells and hypotonic lysis of any remaining red blood cells. After centrifugation the granulocytes are suspended in Ca^++/Mg^++-free phosphate-buffered saline (PBS^−). Granulocytes (10^7 cells/ml) are incubated with the acetoxymethyl ester of indo-1 (1 μM) for 30 min, followed by washing twice with PBS^− and resuspension in the same medium to obtain a final cell concentration of 3.22×10^6 cells/ml. Five minutes prior to commencing data acquisition, Ca^++ and Mg^++ are added to give final concentrations of 1.8 and 1 mM, respectively. Calcium measurements are performed at 37° C. using a spectrofluorometer equipped with a temperature-controlled cuvette holder and a magnetic stirrer. The excitation and emission wavelengths are 331 nm and 410 nm, respectively. Following stabilization of the baseline, fluorescence is measured for 1 min, prior to the addition of either vehicle or various concentrations of a potential 5-oxo-ETE antagonist. Two min later, 5-oxo-ETE (10 nM) is added, followed 1 min later by digitonin (final concentration 0.1%). Data acquisition is terminated after a further 0.5 min. Fmax is determined from fluorescence measurements after the addition of digitonin, whereas Fmin is determined after determination of autofluorescence as described in the literature. A dissociation constant of 250 nM for the indo-1/Ca^++ complex is used to calculate [Ca^++]i. The % inhibition of 5-oxo-ETE-induced calcium mobilization by the antagonist is calculated as follows: Inhibition (%)=(1−(Caant/Ca^++veh))×100 where Caant is the increase in cytosolic calcium levels induced by 5-oxo-ETE (10 nM) following the addition of a potential antagonist, whereas Caveh is the response induced by 5-oxo-ETE following addition of vehicle alone.
# [1] = inhibition of calcium mobilization induced by 5-oxo-ETE (10 nM) in human granulocytes, bracketed figure in cell = n, read-out: IC50
# [2] = 5-oxo-ETE-induced calcium mobilization, read-out: potency (IC50) in the picomolar range
# [3] = 5-oxo-ETE-induced calcium mobilization
IC50 [1] [nM],Structure (SMILES),further results
38 ± 8,"CC(CC(=O)O)CC(=O)c1c(CCCCc2ccccc2)n(C)c2ccc(Cl)cc12 (racemic) [Compound 13, methyl 5-(5-chloro-1-methyl-2-(4-phenylbutyl)-1H-indol-3-yl)-3-methyl-5-oxopentanoic acid]",–
0.033 ± 0.003,"CC(CC(=O)O)CC(=O)c1c(CCCCCCc2cccc(Cl)c2)n(C)c2ccc(Cl)cc12 (racemic) [Compound 20, 5-(5-chloro-2-(6-(3-chlorophenyl)hexyl)-1-methyl-1H-indol-3-yl)-3-methyl-5-oxopentanoic acid]",IC50 [2]: ~0.033 nM
0.072 ± 0.007,"CC(CC(=O)O)CC(=O)c1c(CCCCCCc2cccc(F)c2)n(C)c2ccc(Cl)cc12 (racemic) [Compound 21, 5-(5-chloro-2-(6-(3-fluorophenyl)hexyl)-1-methyl-1H-indol-3-yl)-3-methyl-5-oxopentanoic acid]",IC50 [2]: ~0.072 nM
0.27 ± 0.06,"C[C@H](CC(=O)O)CC(=O)c1c(CCCCCCc2ccccc2F)n(C)c2ccc(Cl)cc12 (single isomer, unassigned) [Compound 48]",–
0.051 ± 0.007,"COc1cccc(CCCCCCc2c(C(=O)C[C@H](C)CC(=O)O)c3cc(Cl)ccc3n2C)c1 (single isomer, unassigned) [Compound 52]",–
81 ± 34,"C[C@@H](CC(=O)O)CC(=O)c1c(CCCCCCc2ccccc2Cl)n(C)c2ccc(Cl)cc12 (single isomer, unassigned) [Compound 62]",–
50 ± 13,"COc1cccc(CCCCCCc2c(C(=O)C[C@@H](C)CC(=O)O)c3cc(Cl)ccc3n2C)c1 (single isomer, unassigned) [Compound 67]",–
0.41 ± 0.07,"CC(CC(=O)O)CC(=O)c1c(CCCCCCc2ccccc2F)n(C)c2ccc(Cl)cc12 (stereo not drawn) [Compound 18, 5-(5-chloro-2-(6-(2-fluorophenyl)hexyl)-1-methyl-1H-indol-3-yl)-3-methyl-5-oxopentanoic acid]",–
0.18 ± 0.05,"COc1ccccc1CCCCCCc1c(C(=O)CC(C)CC(=O)O)c2cc(Cl)ccc2n1C (stereo not drawn) [Compound 19, 5-(5-chloro-2-(6-(2-methoxyphenyl)hexyl)-1-methyl-1H-indol-3-yl)-3-methyl-5-oxopentanoic acid]",–
0.55 ± 0.19,"C[C@H](CC(=O)O)CC(=O)c1c(CCCCCCc2ccccc2Cl)n(C)c2ccc(Cl)cc12 [Compound 47, (S)-5-(5-chloro-2-(6-(2-chlorophenyl)hexyl)-1-methyl-1H-indol-3-yl)-3-methyl-5-oxopentanoic acid]",–
0.47 ± 0.16,"C[C@H](CC(=O)O)CC(=O)c1c(CCCCCCc2ccc(Cl)cc2)n(C)c2ccc(Cl)cc12 [Compound 53, (S)-5-(5-chloro-2-(6-(4-chlorophenyl)hexyl)-1-methyl-1H-indol-3-yl)-3-methyl-5-oxopentanoic acid]",–
1.4 ± 0.4,C[C@H](CC(=O)O)CC(=O)c1c(C(O)CCCCCc2ccc(F)cc2)n(C)c2ccc(Cl)cc12 (stereo partly drawn) [Compound 54M],antagonist activity / potency in words [3]: antagonists and 5-oxo-ETE-induced calcium mobilization inhibitors
0.7,"CC(CC(=O)O)CC(=O)c1c(COCCCc2ccccc2)n(C)c2ccc(Cl)cc12 (stereo not drawn) [Compound 83, 5-(5-chloro-1-methyl-2-((3-phenylpropoxy)methyl)-1H-indol-3-yl)-3-methyl-5-oxopentanoic acid]",–
0.62 ± 0.29,C[C@H](CC(=O)O)CC(=O)c1c(CCCC/C=C\c2ccccc2)n(C)c2ccc(Cl)cc12 [Compound 95],–
0.071 ± 0.024,C[C@H](CC(=O)O)CC(=O)c1c(CCCC/C=C/c2ccccc2)n(C)c2ccc(Cl)cc12 [Compound 97],–
1.1 ± 0.19,C[C@@H](CC(=O)O)CC(=O)c1c(CCCC/C=C/c2ccccc2)n(C)c2ccc(Cl)cc12 [Compound 98],–
88 ± 26,"CCC(C)CCCc1c(C(=O)CC(C)CC(=O)O)c2cc(Cl)ccc2n1C (stereo not drawn) [Compound V225, reference compound]",antagonist activity / potency in words [3]: somewhat less potent

# More lines, now with the values behind:
Structure (SMILES),IC50 [1] [nM],further results
"COc1cccc(CCCCCCc2c(C(=O)CC(C)CC(=O)O)c3cc(Cl)ccc3n2C)c1 (racemic) [Compound 22, 5-(5-chloro-2-(6-(3-methoxyphenyl)hexyl)-1-methyl-1H-indol-3-yl)-3-methyl-5-oxopentanoic acid]",0.086 ± 0.017,IC50 [2]: ~0.086 nM
"C[C@H](CC(=O)O)CC(=O)c1c(CCCCCCc2cccc(F)c2)n(C)c2ccc(Cl)cc12 (single isomer, unassigned) [Compound 51]",0.037 ± 0.005,–
"C[C@@H](CC(=O)O)CC(=O)c1c(CCCCCCc2ccccc2F)n(C)c2ccc(Cl)cc12 (single isomer, unassigned) [Compound 63]",2.9 ± 0.1,–
"COc1ccccc1CCCCCCc1c(C(=O)C[C@@H](C)CC(=O)O)c2cc(Cl)ccc2n1C (single isomer, unassigned) [Compound 64]",54 ± 23,–
"C[C@@H](CC(=O)O)CC(=O)c1c(CCCCCCc2cccc(Cl)c2)n(C)c2ccc(Cl)cc12 (single isomer, unassigned) [Compound 65]",0.64 ± 0.1,–
"C[C@@H](CC(=O)O)CC(=O)c1c(CCCCCCc2cccc(F)c2)n(C)c2ccc(Cl)cc12 (single isomer, unassigned) [Compound 66]",1.8 ± 0.3,–
"C[C@@H](CC(=O)O)CC(=O)c1c(CCCCCCc2ccc(F)cc2)n(C)c2ccc(Cl)cc12 (single isomer, unassigned) [Compound 69]",4.45 ± 1.05,–
"CC(CC(=O)O)CC(=O)c1c(CCCc2ccccc2)n(C)c2ccc(Cl)cc12 (stereo not drawn) [Compound 12, 5-(5-chloro-1-methyl-2-(3-phenylpropyl)-1H-indol-3-yl)-3-methyl-5-oxopentanoic acid, reference compound]",223 ± 18,reduction of potency compared to V230 (relative to V230): about 8 fold
"CC(CC(=O)O)CC(=O)c1c(CCCCCc2ccccc2)n(C)c2ccc(Cl)cc12 (stereo not drawn) [Compound 14, 5-(5-chloro-1-methyl-2-(5-phenylpentyl)-1H-indol-3-yl)-3-methyl-5-oxopentanoic acid]",11 ± 1,–
"CC(CC(=O)O)CC(=O)c1c(CCCCCCc2ccccc2Cl)n(C)c2ccc(Cl)cc12 (stereo not drawn) [Compound 17, 5-(5-chloro-2-(6-(2-chlorophenyl)hexyl)-1-methyl-1H-indol-3-yl)-3-methyl-5-oxopentanoic acid]",0.44 ± 0.13,–
"CC(CC(=O)O)CC(=O)c1c(CCCCCCc2ccc(Cl)cc2)n(C)c2ccc(Cl)cc12 (stereo not drawn) [Compound 23, 5-(5-chloro-2-(6-(4-chlorophenyl)hexyl)-1-methyl-1H-indol-3-yl)-3-methyl-5-oxopentanoic acid]",0.63 ± 0.22,–
"CC(CC(=O)O)CC(=O)c1c(CCCCCCc2ccc(F)cc2)n(C)c2ccc(Cl)cc12 (stereo not drawn) [Compound 24, 5-(5-chloro-2-(6-(4-fluorophenyl)hexyl)-1-methyl-1H-indol-3-yl)-3-methyl-5-oxopentanoic acid]",0.8 ± 0.24,–
"COc1ccc(CCCCCCc2c(C(=O)CC(C)CC(=O)O)c3cc(Cl)ccc3n2C)cc1 (stereo not drawn) [Compound 25, 5-(5-chloro-2-(6-(4-methoxyphenyl)hexyl)-1-methyl-1H-indol-3-yl)-3-methyl-5-oxopentanoic acid]",0.63 ± 0.08,–
"CC(CC(=O)O)CC(=O)c1c(CCCCCCc2cccc(O)c2)n(C)c2ccc(Cl)cc12 (stereo not drawn) [Compound 38, 5-(5-chloro-2-(6-(3-hydroxyphenyl)hexyl)-1-methyl-1H-indol-3-yl)-3-methyl-5-oxopentanoic acid]",1.9 ± 0.3,–
"COc1ccccc1CCCCCCc1c(C(=O)C[C@H](C)CC(=O)O)c2cc(Cl)ccc2n1C [Compound 49, (S)-5-(5-chloro-2-(6-(2-methoxyphenyl)hexyl)-1-methyl-1H-indol-3-yl)-3-methyl-5-oxopentanoic acid]",0.1 ± 0.02,–
COc1ccccc1CCCCCC(O)c1c(C(=O)C[C@H](C)CC(=O)O)c2cc(Cl)ccc2n1C (stereo partly drawn) [Compound 49M],0.58 ± 0.21,antagonist activity / potency in words [3]: antagonists and 5-oxo-ETE-induced calcium mobilization inhibitors
C[C@H](CC(=O)O)CC(=O)c1c(C(O)CCCCCc2cccc(Cl)c2)n(C)c2ccc(Cl)cc12 (stereo partly drawn) [Compound 50M],0.08 ± 0.02,–
"C[C@H](CC(=O)O)CC(=O)c1c(CCCCCCc2ccc(F)cc2)n(C)c2ccc(Cl)cc12 [Compound 54, (S)-5-(5-chloro-2-(6-(4-fluorophenyl)hexyl)-1-methyl-1H-indol-3-yl)-3-methyl-5-oxopentanoic acid]",0.39 ± 0.09,–
"CC(CC(=O)O)CC(=O)c1c(/C=C/CCCCc2ccccc2)n(C)c2ccc(Cl)cc12 (stereo not drawn) [Compound 85, (E)-5-(5-chloro-1-methyl-2-(6-phenylhex-1-en-1-yl)-1H-indol-3-yl)-3-methyl-5-oxopentanoic acid]",1.93 ± 0.6,–
"CC(CC(=O)O)CC(=O)c1c(CCCCC=Cc2ccccc2)n(C)c2ccc(Cl)cc12 (stereo not drawn) [Compound 94, 5-[5-Chloro-1-methyl-2-(6-phenyl-hex-5-enyl)-1H-indol-3-yl]-3-methyl-5-oxopentanoic acid]",0.65 ± 0.36,–
C[C@@H](CC(=O)O)CC(=O)c1c(CCCC/C=C\c2ccccc2)n(C)c2ccc(Cl)cc12 [Compound 96],5.5,–
